The subject of data set [1] is Isolated Rat Heart. The data set is described as follows: Inotropic function of normal isolated rat heart, Langendorff perfusion. The note with it: dose 0.01 mg. The source says:
Rat heart specimens were obtained surgically from white random-bred male rats weighing approximately 250 g. The hearts were established in culture using retrograde heart perfusion according to the Langendorff method performed with a standard oxygenated (95% O2 and 5% CO2) Krebs-Henseleit solution through a glass aorta cannula. The retroperfusion pressure forces the aortic valves shut. In this way, the oxygenated solution passed only through the coronary vasculature of the heart such that both ventricles remain effectively empty. Perfusion conditions: An average constant perfusate flow rate of 15 to 25 ml/min was maintained with a constant perfusate pressure of 80 cm H2 O. Pressure Measurements: A latex balloon catheter connected with a pressure transducer ([…], Sweden) was inserted into the left ventricle of the heart to measure parameters of the inotropic function of the heart. The intraventricle pressure variation curve for the left ventricle was recorded with a polygraph. Experimental Protocol: GE and VT served as the test substances. After a 30-minute adaptation of the heart to the organ culture perfusion conditions, a set of basal (control) measurements was taken, as described in (i) through (v) below. […] See GOODMAN […] THE PHARMACOLOGICAL BASIS OF THERAPEUTICS 160 (Goodman et al., eds., 7th ed. 1985), incorporated herein by reference in its entirety for all purposes. Each dose of each respective test or reference substance was tested on four different rat hearts. The inotropic functions of each of the four rat hearts were evaluated by measuring: (i) the systolic pressure in the left ventricle ([…] diastolic pressure in the left ventricle ([…] evolving pressure (Pev. =[…]); (iv) the maximal rate of increase of left ventricle pressure (+dp/dtmax mm Hg/sec); and (v) the maximal rate of decrease of left ventricle pressure (-dp/dtmax mm Hg/sec). In addition, the heart rate (HR) of each heart was determined from the pressure variation recordings made of the left ventricle pressure.

Data set [2] relates to mice. The data set is described as follows: Chloroform-induced arrhythmia. It counts as in vivo. The conditions noted are these: 240 mg/kg i.p. 15 min before chloroform.
Method: Each mouse in the study was treated by intraperitoneal injection of a dose of a test or control substance 15 minutes prior to the administration of a deep chloroform anesthesia. A test or control substance was then administered to each mouse. […] Novocainamide, a known antiarrhythmic agent, served as the positive control substance and was administered to mice in the positive control group at a dose of 240 mg/kg. Physiological saline served as the negative control substance and was administered to the mice in the negative control group.
Chloroform anesthesia was administered to each mouse by placing the mouse in an airtight glass container with cotton wool soaked in 20 ml of absolute chloroform. At the moment of respiratory arrest, the mouse was removed from the jar and electrocardiogram (ECG) monitoring (standard lead II) was initiated and continued for 30 seconds. […] An antiarrhythmic activity for a particular dose of a test substance is pharmaceutically acceptable if 30% of the animals in a test group show the latter test results (i.e., namely, no sign of ventricular paroxysmal rhythm disturbances and heart rate below 100 beats per 30 seconds within 30 seconds following the respiratory arrest).
In data set [3] the test system is rats. The data set is described as follows: Arterial blood pressure in anesthetized rats. The conditions noted are these: 5 mg/kg i.v. It is filed as in vivo. The procedure: White random-bred male rats weighing approximately 200 g were employed for this study. Each dose of each respective test or control substance was administered to a group of five rats. GE and VT were employed as test substances and were administered intravenously at doses of 0.01, 0.1, 1.0, and 10.0 mg/kg. Physiological saline (0.2 ml) served as the negative control substance. The ganglionic blocking agent, pentamine, served as the positive control substance and was tested at a dose of 5 mg/kg. Following administration of the test substance, positive control substance, or negative control substance, the arterial blood pressure of each animal was monitored.
Prior to administration of the test or control substance, each animal was anesthetized with Chloralose and then both its carotid artery and jugular vein were catheterized. The carotid catheter was connected to an electronic manometer attached to a computer recorder through an analog-to-digital converter. The mean basal level of the arterial blood pressure was determined as follows: For a period of 30 seconds, the digital signal pertaining to the arterial blood pressure was recorded at 1-second intervals. The mean value of these thirty individual measurements was then determined and recorded.
After determining the mean basal level of the arterial blood pressure, a particular dose of the test or control substance was administered in a volume of 0.2 ml of physiological saline to an animal through the jugular venous catheter. Measurements of the arterial blood pressure were then taken during the next 1.5 hours as follows: (i) during the first 5 minutes, the arterial blood pressure was being monitored continuously and mean values were calculated electronically and recorded at each of the ten different 30-second intervals (i.e., 30th second, 60th second, etc.); (ii) thereafter, mean values of the arterial blood pressure were calculated at the first seconds of 10th minute, 15th minute, 30th minute, 45th minute, 60th minute, 75th minute, and 90th minute after administration of the respective test or control substance.

Data set [4] concerns rats. In words: ECG parameters of cardiac function in Nembutal-anesthetized rats.
Method: White random-bred male rats weighing about 200 g were anesthetized using Nembutal. A basal ECG was taken as soon as possible following anesthetization to establish basal measurements for the principal parameters of cardiac functions. Rats showing any deviation from normal ECG parameters were excluded from the study.
Each dose of each test substance was evaluated on a separate experimental group consisting of 10 rats. ECG traces (no less than 4 complexes each) were taken at 1, 3, 5, and 10 minutes after the injection of the test substance. Physiological saline served as the negative control substance. To each animal in the negative control group, 2 ml of physiological saline was injected intravenously.
Cardiac function was evaluated by monitoring the following ECG parameters:
(iv) the duration of the QT interval (which defines the time from the beginning of the QRS complex to the end of the T wave and reflects the duration of ventricular depolarization and repolarization). The normal value for this parameter for Nembutal-anesthetized rats is 50 to 106 ms using lead II ECG.
Data set [5] relates to ischemic myocardium. In words: Inotropic function and arrhythmias of ischemic isolated rat heart during reperfusion. The note with it: 0.06-6.0 mg/l. An excerpt: Rat hearts were surgically isolated from white random-bred rats weighing approximately 250 g. The isolated hearts were perfused with a standard oxygenated (95% O2 and 5% CO2) Krebs-Henseleit solution in a retrograde manner (i.e., according to Langendorff and using a constant perfusate pressure of 80 cm of water). The hearts maintained a steady spontaneous contraction rate. A latex balloon catheter connected to a pressure transducer (EMT-746, Siemens-Elema, Sweden) was inserted into the left ventricle of each heart to measure the inotropic function of the heart (as described in Example 3, above). The left ventricle pressure variation curve was recorded using a polygraph.
Stage I ("adaptation regimen") consisted of a 30-minute adaptation of the respective rat hearts to the perfusion regimen. The baseline parameters for the inotropic function of each heart were recorded to establish the preischemic values for the following measured parameters: (i) the systolic pressure in the left ventricle (Psyst. mm Hg); (ii) the diastolic pressure in the left ventricle (Pdiast. mm Hg); (iii) the evolving pressure (Pev. =Psyst. -Pdist. mm Hg); (iv) the maximal rate of increase of left ventricle pressure (+dp/dtmax mm Hg/sec); and (v) the maximal rate of decrease of left ventricle pressure (-dp/dtmax mm Hg/sec). In addition, the heart rate (HR) of each heart was determined from the recordings made of the variations in the left ventricle pressure over time. In Stage II ("ischemic simulation"), ischemia was induced in each heart by shutting off the supply of the perfusion solution to the heart. Approximately 30 minutes later, Stage III ("reperfusion regimen") was initiated by restarting the reperfusion and including in the perfusate solution a test or control substance at one of the following respective concentrations: a perfusate solution of a test substance comprised 0.06, 0.6, or 6.0 mg/l GE, or 0.06, 0.6, or 6.0 mg/l VT, respectively; a perfusate solution of the positive control substance comprised 14 mg/l inosine. Inosine is a nucleoside preparation that produces a favorable inotropic effect on both normal and ischemic myocardium while inducing no rhythm disturbances or acceleration of ischemic contracture development. Woollard et al., Cardiovasc. Res. 15: 659-67 (1981). Inosine was obtained from Sigma Chemical Company, USA (Cat. Code I-4125; lot number 81H0227). The negative control substance comprised reperfusion using a standard oxygenated Krebs-Henseleit solution.
For each heart, the inotropic function of the myocardium was evaluated by measuring the parameters (i) through (v), discussed above, and the heart rate. These six parameters were recorded continuously throughout the study (i.e., beginning with Stage I and continuing through Stage III). The recordings were analyzed at the following times: (a) immediately before beginning Stage II (that is, after the 30-minute Stage I adaptation period, but before stopping perfusion); and (b) at 1, 5, 10, 20, and 30 minutes into the Stage III reperfusion.
The frequency and duration of rhythm disturbances in the 30-minute Stage III reperfusion period were determined by measuring the following parameters: (i) the number of ventricular extrasystoles; (ii) the overall duration of ventricular tachycardias (in seconds); and (iii) the overall duration of ventricular fibrillation (in seconds). Each dose of the test substance was tested on nine isolated hearts.

Values joined by “and” are separate entries in the source; they are usually repeats but may differ in a detail not shown here. Equal entries are not always repeated. Residues, ends and D or L forms follow the SMILES beside them.

As to `CC(C)NCC(O)c1ccc(O)c(O)c1` (stereo not drawn) [Isoproterenol, isoproterenol, reference compound], in data set [1], the “+dp/dtmax % of Basal Level” value was 122%, the “+dp/dtmax Subst. Level” value is given as 2110 mm Hg/sec, the “-dp/dtmax % of Basal Level” value stood at 112% and the “-dp/dtmax Subst. Level” value was determined as 1140 mm Hg/sec. For the same compound, in data set [1], the “HR % of Basal Level” value was 133%; the “HR abs, Subst. Level” value was found to be 255 hb/min; the “Pdiast % of Basal Level” value is 120%; the “Pdiast abs, Subst. Level” value turned out to be 12 mm Hg. For the same compound, in data set [1], the “Pev % of Basal Level” value is given as 118%, the “Pev Subst. Level” value amounted to 108 mm Hg and the “Psyst % of Basal Level” value stood at 117%.

For `CCN(CC)CCNC(=O)c1ccc(N)cc1` [Novocainamide, reference compound], in data set [2], the “Antiarrhythmic Effect (no. animals) %” value stood at 77.8%, the “Antiarrhythmic Effect (no. animals) abs” value came to 7 and the Result entry was “Antiarrhythmic effect”.

For `CC[N+](C)(C)CCN(C)CC[N+](C)(C)CC` [Pentamine, pentamine, reference compound], the “Arterial Blood Pressure (Basal Level = 100.00)” value in data set [3] (1 min) stood at 87.09%; in data set [3] (2 min), 68.18%; in data set [3] (3 min), 70.82%; in data set [3] (4 min) it was 69.29%; in data set [3] (5 min), 74.11%; in data set [3] (10 min), 91.63%. Besides, the “Arterial Blood Pressure (Basal Level = 100.00)” value in data set [3] (15 min) worked out at 89.94%; in data set [3] (30 min), 86.95%; in data set [3] (45 min) it was 93.89%; in data set [3] (60 min), 100.31%; in data set [3] (75 min) it was 94.38%; in data set [3] (90 min), 93.22%.

For the compound `CC(C)[C@H](N)C(=O)N[C@H](C(=O)O)[C@@H](C)O` [VT, L-Valine-L-Threonine] (H-Val-Thr-OH), the “Duration of QT Interval (% of Initial Mean Value)” value is listed as 101.80% in data set [4] (0.001 mg/kg i.v., 1 min); 105.73% in data set [4] (0.001 mg/kg i.v., 3 min); 102.20% in data set [4] (0.001 mg/kg i.v., 5 min); 101.24% in data set [4] (0.001 mg/kg i.v., 10 min); 99.86% in data set [4] (0.01 mg/kg i.v., 1 min); 101.48% in data set [4] (0.01 mg/kg i.v., 3 min). Further, the “Duration of QT Interval (% of Initial Mean Value)” value in data set [4] (0.01 mg/kg i.v., 5 min) turned out to be 101.09%; in data set [4] (0.01 mg/kg i.v., 10 min) it was 97.32%; in data set [4] (0.1 mg/kg i.v., 1 min), 102.97%; in data set [4] (0.1 mg/kg i.v., 3 min), 98.39%; in data set [4] (0.1 mg/kg i.v., 5 min), 95.65%; in data set [4] (0.1 mg/kg i.v., 10 min), 90.67%. Further, the “Duration of QT Interval (% of Initial Mean Value)” value in data set [4] (1.0 mg/kg i.v., 1 min) is 105.57%; in data set [4] (1.0 mg/kg i.v., 3 min) it was 105.58%; in data set [4] (1.0 mg/kg i.v., 5 min) it was 102.18%; in data set [4] (1.0 mg/kg i.v., 10 min), 101.18%; in data set [4] (10.0 mg/kg i.v., 1 min) it was 94.89% and 102.97%; in data set [4] (10.0 mg/kg i.v., 3 min), 95.91% and 105.82%. The “Duration of QT Interval (% of Initial Mean Value)” value was 96.52% and 103.51% in data set [4] (10.0 mg/kg i.v., 5 min); 88.88% and 104.78% in data set [4] (10.0 mg/kg i.v., 10 min); 100.00% and 96.62% in data set [4] (100.0 mg/kg i.v., 1 min); 100.82% and 100.45% in data set [4] (100.0 mg/kg i.v., 3 min); 97.96% and 99.74% in data set [4] (100.0 mg/kg i.v., 5 min); 94.74% and 102.25% in data set [4] (100.0 mg/kg i.v., 10 min). Further, the “arrhythmogenic effect during reperfusion” value in data set [5] is on record as “Neither GE nor VT was found to have an arrhythmogenic effect”.

Source of the values: US5972894A, “Peptides having potassium channel opener activity” (Cytran, Inc., priority 1997, dated 1999).
